Data: patent publication US9399649B2, “Compounds for treating spinal muscular atrophy” (PTC Therapeutics Inc., priority 2012, dated 2016)

Assays:
Smn protein = Smn protein assay in cultured cells (SMN HTRF); type: cell-based, human; conditions: SMA patient fibroblast cells (GM03813), 48 hours; for EC1.5x for Smn protein expression: 7-point concentration curve, concentration producing 1.5 times Smn protein vs DMSO vehicle; for maximum fold (Fold) increase of Smn protein: 7-point concentration data, relative to vehicle control
Summary of the method: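 SMA patient fibroblasts, 5,000 per well in DMEM-10% FBS, exposed 48 h at 37° C. to a 7-point, 3.16-fold compound series in triplicate. RIPA lysates read by SMN HTRF (665/620 nm, overnight at room temperature); ΔF over blank expressed as fold of vehicle.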

[1] = test system: full length SMN2 minigene mRNA containing SMN2 exon 7; test: SMN2 minigene mRNA splicing RT-qPCR assay in cultured cells; type: cell-based, human; conditions: Homo sapiens, HEK293-H; HEK293H cells stably transfected with SMN2-A minigene, 24 hours, 7-point concentration curve; concentration giving 1.5-fold full length SMN2 mRNA vs vehicle; read-out: EC1.5x for production of full length SMN2 mRNA
Summary of the method: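 HEK293H cells stably carrying SMN2-A minigene treated 24 h (37 °C) with compound, 7-point 3.16-fold dilution, duplicates. Multiplex RT-qPCR on lysate with exon 7/luciferase primers and exon 7–8 junction probe (minigene-specific). Full-length transcript normalised to GAPDH by modified ΔΔCt, expressed relative to vehicle-treated cells.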

| SMILES | melting point [°C] | EC1.5x for Smn protein expression (Smn protein) | maximum fold (Fold) increase of Smn protein (Smn protein) | EC (1.5-fold) [1] [µM] |
| --- | --- | --- | --- | --- |
| Cc1cn2cc(-c3cc4ccc(N5CCN(C6COC6)[C@@H](C)C5)cc4c(=O)o3)nc2c(C)n1 [Cpd 139, 3-(6,8-dimethylimidazo[1,2-a]pyrazin-2-yl)-7-[(3S)-3-methyl-4-(oxetan-3-yl)piperazin-1-yl]-1H-isochromen-1-one] | 251 to 256 | ** (an EC1.5× between >1 μM, and ≦3 nM is indicated by two stars (**)) | ***** (a fold increase >1.65 is indicated by five stars (*****)) | 0.3 to 1 |
| CCN1CCN(c2ccc3cc(-c4cn5cc(C)nc(C)c5n4)oc(=O)c3c2)C[C@H]1C [Cpd 140, 3-(6,8-dimethylimidazo[1,2-a]pyrazin-2-yl)-7-[(3R)-4-ethyl-3-methylpiperazin-1-yl]-1H-isochromen-1-one] | 243 to 246 | **** (an EC1.5×≦0.3 nM is indicated by four stars (****)) | ***** (a fold increase >1.65 is indicated by five stars (*****)) | ≤ 0.1 |
| CCCN1CCN(c2ccc3cc(-c4cn5cc(C)nc(C)c5n4)oc(=O)c3c2)C[C@H]1C [Cpd 141, 3-(6,8-dimethylimidazo[1,2-a]pyrazin-2-yl)-7-[(3R)-3-methyl-4-propylpiperazin-1-yl]-1H-isochromen-1-one] | 251 to 256 | **** (an EC1.5×≦0.3 nM is indicated by four stars (****)) | ***** (a fold increase >1.65 is indicated by five stars (*****)) | ≤ 0.1 |
| Cc1cn2cc(-c3cc4ccc(N5CCN(CCO)[C@H](C)C5)cc4c(=O)o3)nc2c(C)n1 [Cpd 142, 3-(6,8-dimethylimidazo[1,2-a]pyrazin-2-yl)-7-[(3R)-4-(2-hydroxyethyl)-3-methylpiperazin-1-yl]-1H-isochromen-1-one] | 256 to 261 | **** (an EC1.5×≦0.3 nM is indicated by four stars (****)) | ***** (a fold increase >1.65 is indicated by five stars (*****)) | ≤ 0.1 |
| Cc1cn2cc(-c3cc4ccc(N5CCN(C6CCC6)[C@H](C)C5)cc4c(=O)o3)nc2c(C)n1 [Cpd 143, 7-[(3R)-4-cyclobutyl-3-methylpiperazin-1-yl]-3-(6,8-dimethylimidazo[1,2-a]pyrazin-2-yl)-1H-isochromen-1-one] | 281 to 285 | **** (an EC1.5×≦0.3 nM is indicated by four stars (****)) | ***** (a fold increase >1.65 is indicated by five stars (*****)) | ≤ 0.1 |
| Cc1cn2cc(-c3cc4ccc(N5CCN(C(C)C)[C@H](C)C5)cc4c(=O)o3)nc2c(C)n1 [Cpd 144, 3-(6,8-dimethylimidazo[1,2-a]pyrazin-2-yl)-7-[(3R)-3-methyl-4-(propan-2-yl)piperazin-1-yl]-1H-isochromen-1-one] | 262 to 267 | **** (an EC1.5×≦0.3 nM is indicated by four stars (****)) | ***** (a fold increase >1.65 is indicated by five stars (*****)) | ≤ 0.1 |
| COCCN1CCN(c2ccc3cc(-c4cn5cc(C)nc(C)c5n4)oc(=O)c3c2)C[C@H]1C [Cpd 145, 3-(6,8-dimethylimidazo[1,2-a]pyrazin-2-yl)-7-[(3R)-4-(2-methoxyethyl)-3-methylpiperazin-1-yl]-1H-isochromen-1-one] | 205 to 210 | **** (an EC1.5×≦0.3 nM is indicated by four stars (****)) | ***** (a fold increase >1.65 is indicated by five stars (*****)) | ≤ 0.1 |
| COCCN1CCN(c2ccc3cc(-c4cn5cc(C)nc(C)c5n4)oc(=O)c3c2)C[C@@H]1C [Cpd 146, 3-(6,8-dimethylimidazo[1,2-a]pyrazin-2-yl)-7-[(3S)-4-(2-methoxyethyl)-3-methylpiperazin-1-yl]-1H-isochromen-1-one] | 221 to 226 | **** (an EC1.5×≦0.3 nM is indicated by four stars (****)) | ***** (a fold increase >1.65 is indicated by five stars (*****)) | 0.1 to 0.3 |
| CCN1[C@H](C)CN(c2ccc3cc(-c4cn5cc(C)nc(C)c5n4)oc(=O)c3c2)C[C@@H]1C [Cpd 147, 3-(6,8-dimethylimidazo[1,2-a]pyrazin-2-yl)-7-[(3R,5S)-4-ethyl-3,5-dimethylpiperazin-1-yl]-1H-isochromen-1-one] | 253 to 258 | *** (an EC1.5× between >0.3 nM and ≦1 nM is indicated by three stars (***)) | ***** (a fold increase >1.65 is indicated by five stars (*****)) | ≤ 0.1 |
| CCCN1[C@H](C)CN(c2ccc3cc(-c4cn5cc(C)nc(C)c5n4)oc(=O)c3c2)C[C@@H]1C [Cpd 148, 3-(6,8-dimethylimidazo[1,2-a]pyrazin-2-yl)-7-[(3R,5S)-3,5-dimethyl-4-propylpiperazin-1-yl]-1H-isochromen-1-one] | 259 to 263 | *** (an EC1.5× between >0.3 nM and ≦1 nM is indicated by three stars (***)) | **** (a fold increase between >1.5 and ≦1.65 is indicated by four stars (****)) | ≤ 0.1 |
| Cc1cn2cc(-c3cc4ccc(N5C[C@@H](C)N(C)[C@@H](C)C5)cc4c(=O)o3)nc2c(C)n1 [Cpd 149, 3-(6,8-dimethylimidazo[1,2-a]pyrazin-2-yl)-7-[(3R,5S)-3,4,5-trimethylpiperazin-1-yl]-1H-isochromen-1-one] | 261 to 266 | **** (an EC1.5×≦0.3 nM is indicated by four stars (****)) | ***** (a fold increase >1.65 is indicated by five stars (*****)) | ≤ 0.1 |
| CCc1nc(C)cn2cc(-c3cc4ccc(N5CCN(C)CC5)cc4c(=O)o3)nc12 [Cpd 151, 3-(8-ethyl-6-methylimidazo[1,2-a]pyrazin-2-yl)-7-(4-methylpiperazin-1-yl)-1H-isochromen-1-one] | 229 to 234 | **** (an EC1.5×≦0.3 nM is indicated by four stars (****)) | ***** (a fold increase >1.65 is indicated by five stars (*****)) | ≤ 0.1 |

More lines, main results first:

| melting point [°C] | SMILES | EC1.5x for Smn protein expression (Smn protein) | maximum fold (Fold) increase of Smn protein (Smn protein) | EC (1.5-fold) [1] [µM] |
| --- | --- | --- | --- | --- |
| 206 to 211 | CCc1nc(C)cn2cc(-c3cc4ccc(N5CCN[C@@H](C)C5)cc4c(=O)o3)nc12 [Cpd 152, 3-(8-ethyl-6-methylimidazo[1,2-a]pyrazin-2-yl)-7-[(3S)-3-methylpiperazin-1-yl]-1H-isochromen-1-one] | **** (an EC1.5×≦0.3 nM is indicated by four stars (****)) | ***** (a fold increase >1.65 is indicated by five stars (*****)) | ≤ 0.1 |
| 208 to 213 | CCc1nc(C)cn2cc(-c3cc4ccc(N5CCN[C@H](C)C5)cc4c(=O)o3)nc12 [Cpd 153, 3-(8-ethyl-6-methylimidazo[1,2-a]pyrazin-2-yl)-7-[(3R)-3-methylpiperazin-1-yl]-1H-isochromen-1-one] | **** (an EC1.5×≦0.3 nM is indicated by four stars (****)) | ***** (a fold increase >1.65 is indicated by five stars (*****)) | ≤ 0.1 |
| 239 to 244 | CCc1nc(C)cn2cc(-c3cc4ccc(N5C[C@@H](C)N[C@@H](C)C5)cc4c(=O)o3)nc12 [Cpd 154, 7-[(3R,5S)-3,5-dimethylpiperazin-1-yl]-3-(8-ethyl-6-methylimidazo[1,2-a]pyrazin-2-yl)-1H-isochromen-1-one] | **** (an EC1.5×≦0.3 nM is indicated by four stars (****)) | ***** (a fold increase >1.65 is indicated by five stars (*****)) | ≤ 0.1 |
| 233 to 238 | CCc1nc(C)cn2cc(-c3cc4ccc(N5CCN(C)[C@@H](C)C5)cc4c(=O)o3)nc12 [Cpd 155, 7-[(3S)-3,4-dimethylpiperazin-1-yl]-3-(8-ethyl-6-methylimidazo[1,2-a]pyrazin-2-yl)-1H-isochromen-1-one] | **** (an EC1.5×≦0.3 nM is indicated by four stars (****)) | ***** (a fold increase >1.65 is indicated by five stars (*****)) | ≤ 0.1 |
| 268 to 270 | Cn1cc2cc(-c3cc4ccc(N5CCNCC5)cc4c(=O)o3)ccc2n1 [Cpd 156, 3-(2-methyl-2H-indazol-5-yl)-7-(piperazin-1-yl)-1H-isochromen-1-one] | **** (an EC1.5×≦0.3 nM is indicated by four stars (****)) | ***** (a fold increase >1.65 is indicated by five stars (*****)) | ≤ 0.1 |
| 239 to 240 | CN1CCN(c2ccc3cc(-c4ccc5nn(C)cc5c4)oc(=O)c3c2)CC1 [Cpd 157, 3-(2-methyl-2H-indazol-5-yl)-7-(4-methylpiperazin-1-yl)-1H-isochromen-1-one] | **** (an EC1.5×≦0.3 nM is indicated by four stars (****)) | **** (a fold increase between >1.5 and ≦1.65 is indicated by four stars (****)) | ≤ 0.1 |
